Reference: US20240299339A1, “COMPOSITION FOR SUPPRESSING MUSCLE DAMAGE” (OTSUKA PHARMACEUTICAL CO., LTD., priority 2021, published 2024)

Experiment: Verification of function of KMP using 400-m run: blood markers in healthy subjects
Format: in vivo, human
Details: 16 healthy subjects (20 to 22 years old); single dose of capsule food containing 10 mg of KMP, 3 h before two 400-m full-speed runs 90 min apart; vs placebo
Method: According to usual methods, blood samples were taken, and the concentration of each blood marker was measured. […] It is known that blood myoglobin is detected with muscle fiber damage and that its concentration increases with muscle fiber damage (J. Appl. Physiol. 83 (4): 1076-1082, 1997).
The capsule foods used in the test were prepared according to the following procedures. Quinoa grains were extracted twice with 50% aqueous ethanol at 70° C., followed by concentration under reduced pressure. To a solution obtained by purifying the resultant with resin, Aromase H2 (produced by Amano Enzyme, Inc.) was added, and the enzyme was allowed to act (conversion into aglycone) while stirring at 50° C. The resulting reaction liquid was heated to 100° C. and maintained for 15 minutes to inactivate the enzyme. Thereafter, the treated liquid was freeze-dried to give an ethanol extraction powder. To the powder, starch was added in an amount equal to the amount of the powder (on a weight basis), followed by mixing. Capsules were filled with the resulting mixture in an amount of 116 mg (including 2.5 mg of kaempferol) per capsule. The subjects ingested four capsules (10 mg of kaempferol in total) at one time. The food used as the placebo was obtained by filling capsules with only starch.

SMILES: O=c1c(O)c(-c2ccc(O)cc2)oc2cc(O)cc(O)c12 [KMP, Kaempferol]
- blood myoglobin level after running at full speed: significantly lower
